Results reported in DBAASP.
Values after ≈ are worked out from the molar mass of the structure shown.

Assays:
Experiment in all cases: ≥ marks a high value that may be exact or a test limit, other limits are often not marked, values filed in µg/mL are converted to µM
[1] = tested on: Staphylococcus aureus NCTC 8325
[2] = tested on: Candida albicans ATCC 90028
[3] = tested on: Escherichia coli ATCC 25922
[4] = tested on: Pseudomonas aeruginosa
[5] = tested on: Escherichia coli B
[6] = tested on: Staphylococcus aureus
[7] = tested on: Bacillus subtilis 168
[8] = tested on: Escherichia coli DH5alpha
[9] = tested on: Escherichia coli UB1005
[10] = tested on: Staphylococcus aureus ATCC 25923
[11] = tested on: Staphylococcus aureus ATCC 29213
[12] = tested on: Salmonella enterica subsp. enterica serovar Typhimurium C77-31
[13] = tested on: Staphylococcus epidermidis ATCC 12228
[14] = tested on: Acinetobacter baumannii
[15] = tested on: Escherichia coli

MIC [1] [µM]	MIC [3] [µM]	MIC [4] [µM]	MIC [6] [µM]	MIC [7] [µM]	MIC [9] [µM]	MIC [10] [µM]	MIC [11] [µM]	MIC [12] [µM]	MIC [13] [µM]	Structure (SMILES)	other results
≥ 100										CC(C)C[C@H](NC(=O)[C@@H](NC(=O)[C@H](CCCCN)NC(=O)[C@H](CO)NC(=O)[C@H](CC(C)C)NC(=O)[C@H](CC(C)C)NC(=O)[C@@H](NC(=O)[C@H](C)NC(=O)[C@H](CC(C)C)NC(=O)[C@H](Cc1ccccc1)NC(=O)[C@@H]1CCCN1C(=O)[C@H](CC(C)C)NC(=O)[C@@H](N)Cc1ccccc1)[C@@H](C)O)C(C)C)C(N)=O [FLPFLATLLSKVL]	
5 (≈ 12.9 µg/mL)	14 (≈ 36.1 µg/mL)									CC[C@H](C)[C@H](NC(=O)CNC(=O)[C@H](C)NC(=O)[C@@H](NC(=O)[C@@H](NC(=O)[C@@H]1CCCN1C(=O)[C@H](CC(C)C)NC(=O)[C@@H](N)Cc1ccccc1)[C@@H](C)CC)[C@@H](C)CC)C(=O)N[C@@H](C)C(=O)N[C@@H](C)C(=O)N[C@@H](CCCCN)C(=O)N[C@H](C(=O)N[C@@H](Cc1ccccc1)C(=O)N1CCC[C@H]1C(=O)N[C@@H](CCCCN)C(=O)N[C@H](C(=O)N[C@@H](Cc1ccccc1)C(=O)N[C@H]1CSSC[C@@H](C(=O)O)NC(=O)[C@H](CCCCN)NC(=O)[C@H](CCCCN)NC(=O)[C@H](CO)NC(=O)[C@H]([C@@H](C)CC)NC(=O)[C@H](C)NC1=O)[C@@H](C)CC)C(C)C [FLPIIAGIAAKVFPKIFCAISKKC]	MIC [2]: 7 µM (≈ 18 µg/mL)
		46.7 (≈ 70.2 µg/mL)	12.5 (≈ 18.8 µg/mL)	1.1 (≈ 1.65 µg/mL)						CC[C@H](C)[C@H](NC(=O)[C@H](Cc1cnc[nH]1)NC(=O)[C@H](CCCCN)NC(=O)[C@H](CC(C)C)NC(=O)[C@H](CC(C)C)NC(=O)[C@H](Cc1cnc[nH]1)NC(=O)[C@H](CCSC)NC(=O)[C@H](Cc1c[nH]c2ccccc12)NC(=O)[C@H](CCCCN)NC(=O)CN)C(=O)N[C@@H](CC(C)C)C(=O)N[C@@H](CCCCN)C(N)=O [GKWMHLLKHILK]	MIC [5]: 2.2 µM (≈ 3.31 µg/mL)
≥ 40	2 (≈ 5.57 µg/mL)									CC[C@H](C)[C@@H]1NC(=O)[C@@H](NC(=O)[C@H](CCCCN)NC(=O)[C@H](CC(C)C)NC(=O)CNC(=O)[C@H](CCC(N)=O)NC(=O)[C@H](CC(C)C)NC(=O)[C@H](CC(C)C)NC(=O)[C@H](CCCCN)NC(=O)CNC(=O)[C@H](C)NC(=O)[C@H](CC(C)C)NC(=O)CNC(=O)[C@H](CCCCN)NC(=O)[C@H](CC(C)C)NC(=O)[C@@H](NC(=O)[C@H](CC(=O)O)NC(=O)[C@H](CC(C)C)NC(=O)[C@H](Cc2ccccc2)NC(=O)[C@H](CC(C)C)NC(=O)CN)[C@@H](C)O)CSSC[C@@H](C(=O)N[C@@H](CCCCN)C(=O)N2CCC[C@H]2C(=O)O)NC(=O)CNC(=O)[C@H](C)NC(=O)[C@H](CCCCN)NC1=O [GLFLDTLKGLAGKLLQGLKCIKAGCKP]	MIC [2]: ≥ 46 µM
				2 (≈ 3.27 µg/mL)						CC(C)C[C@H](NC(=O)[C@H](CCCCN)NC(=O)[C@H](CCCCN)NC(=O)[C@H](CC(C)C)NC(=O)[C@H](CC(C)C)NC(=O)[C@H](CCCCN)NC(=O)[C@H](CCCCN)NC(=O)[C@H](CC(C)C)NC(=O)[C@H](CC(C)C)NC(=O)[C@H](CCCCN)NC(=O)[C@H](CCCCN)NC(=O)[C@H](CC(C)C)NC(=O)[C@H](CC(C)C)NC(=O)CN)C(N)=O [GLLKKLLKKLLKKL]	MIC [8]: 6 µM (≈ 9.81 µg/mL)
≥ 80	20 (≈ 54 µg/mL)									CC[C@H](C)[C@H](NC(=O)CNC(=O)[C@H](CCC(N)=O)NC(=O)[C@H](Cc1ccccc1)NC(=O)[C@@H](NC(=O)[C@H](CCCCN)NC(=O)[C@H](CCCCN)NC(=O)[C@H](CC(C)C)NC(=O)[C@H](C)NC(=O)[C@H](CC(N)=O)NC(=O)[C@H](CC(C)C)NC(=O)CN)C(C)C)C(=O)N[C@@H](Cc1cnc[nH]1)C(=O)N[C@@H](CCC(=O)O)C(=O)N[C@@H](C)C(=O)N[C@H](C(=O)N[C@@H](CCCCN)C(=O)N[C@@H](CC(C)C)C(=O)N[C@H](C(=O)N[C@@H](CC(N)=O)C(=O)N[C@@H](CCCCN)C(=O)N[C@@H](Cc1cnc[nH]1)C(=O)N[C@H](C(=O)N[C@@H](CCC(N)=O)C(=O)O)C(C)C)[C@@H](C)CC)[C@@H](C)CC [GLNALKKVFQGIHEAIKLINKHVQ]	
	> 128				≥ 64	> 128	> 128	≥ 128	> 128	CC(C)C[C@H](NC(=O)[C@H](CCCN=C(N)N)NC(=O)[C@H](CCCCN)NC(=O)[C@H](CCCN=C(N)N)NC(=O)[C@@H](NC(=O)[C@H](CCCCN)NC(=O)[C@H](CCCCN)NC(=O)[C@H](CCCN=C(N)N)NC(=O)[C@H](CC(C)C)NC(=O)[C@H](CCCN=C(N)N)NC(=O)[C@@H](N)CCCN=C(N)N)[C@@H](C)O)C(=O)N[C@@H](CCCCN)C(N)=O [RRLRKKTRKRLK]	
		75 (≈ 89.8 µg/mL)	> 100	4.7 (≈ 5.63 µg/mL)						CC[C@H](C)[C@H](NC(=O)[C@H](CCCCN)NC(=O)CNC(=O)[C@H](CC(C)C)NC(=O)[C@@H](NC(=O)[C@H](CCCCN)NC(=O)[C@H](CCCCN)NC(=O)[C@H](Cc1c[nH]c2ccccc12)NC(=O)[C@H](CC(N)=O)NC(=O)[C@@H](N)C(C)C)[C@@H](C)CC)C(N)=O [VNWKKILGKI]	MIC [5]: 23.3 µM (≈ 27.9 µg/mL)
		26.1 (≈ 47.9 µg/mL)	9.6 (≈ 17.6 µg/mL)	0.7 (≈ 1.29 µg/mL)						CC[C@H](C)[C@H](NC(=O)[C@H](CCCCN)NC(=O)[C@H](CCCCN)NC(=O)[C@H](Cc1c[nH]c2ccccc12)NC(=O)[C@H](CC(N)=O)NC(=O)[C@@H](N)C(C)C)C(=O)N[C@@H](CC(C)C)C(=O)N[C@@H](CCCCN)C(=O)N[C@@H](CCCCN)C(=O)N[C@H](C(=O)N[C@H](C(=O)N[C@@H](CCCCN)C(=O)N[C@H](C(=O)N[C@H](C(=O)N[C@@H](CCCCN)C(N)=O)C(C)C)C(C)C)[C@@H](C)CC)[C@@H](C)CC [VNWKKILKKIIKVVK]	MIC [5]: 0.7 µM (≈ 1.29 µg/mL)
	4 (≈ 6.09 µg/mL)				4 (≈ 6.09 µg/mL)	64 (≈ 97.5 µg/mL)	16 (≈ 24.4 µg/mL)	16 (≈ 24.4 µg/mL)	32 (≈ 48.7 µg/mL)	CC(C)C[C@H](NC(=O)[C@H](CCCN=C(N)N)NC(=O)[C@@H](NC(=O)[C@H](CCCN=C(N)N)NC(=O)[C@@H](NC(=O)[C@H](CCCCN)NC(=O)[C@@H](NC(=O)[C@H](CCCN=C(N)N)NC(=O)[C@H](CC(C)C)NC(=O)[C@H](CCCN=C(N)N)NC(=O)[C@@H](N)C(C)C)C(C)C)[C@@H](C)O)C(C)C)C(=O)N[C@@H](CCCCN)C(N)=O [VRLRVKTRVRLK]	
	2 (≈ 3.28 µg/mL)	4 (≈ 6.57 µg/mL)	2 (≈ 3.28 µg/mL)		2 (≈ 3.28 µg/mL)	2 (≈ 3.28 µg/mL)	1 (≈ 1.64 µg/mL)	2 (≈ 3.28 µg/mL)	2 (≈ 3.28 µg/mL)	CC(C)[C@H](NC(=O)[C@H](CCCCN)NC(=O)[C@H](Cc1c[nH]c2ccccc12)NC(=O)[C@H](CCCCN)NC(=O)[C@@H](NC(=O)[C@H](CCCCN)NC(=O)[C@H](Cc1c[nH]c2ccccc12)NC(=O)[C@H](CCCCN)NC(=O)[C@@H](NC(=O)[C@H](CCCCN)NC(=O)[C@@H](N)Cc1c[nH]c2ccccc12)C(C)C)C(C)C)C(=O)N[C@@H](CCCCN)C(N)=O [WKVKWKVKWKVK]	MIC [14]: 1.41 µM (≈ 2.32 µg/mL); MIC [15]: 1 µM (≈ 1.64 µg/mL)
	4 (≈ 7.26 µg/mL)	> 64	4 (≈ 7.26 µg/mL)		4 (≈ 7.26 µg/mL)	8 (≈ 14.5 µg/mL)	4 (≈ 7.26 µg/mL)	4 (≈ 7.26 µg/mL)	8 (≈ 14.5 µg/mL)	C[C@@H](O)[C@H](NC(=O)[C@H](CCCN=C(N)N)NC(=O)[C@H](Cc1c[nH]c2ccccc12)NC(=O)[C@H](CCCN=C(N)N)NC(=O)[C@@H](NC(=O)[C@H](CCCN=C(N)N)NC(=O)[C@H](Cc1c[nH]c2ccccc12)NC(=O)[C@H](CCCN=C(N)N)NC(=O)[C@@H](NC(=O)[C@H](CCCN=C(N)N)NC(=O)[C@@H](N)Cc1c[nH]c2ccccc12)[C@@H](C)O)[C@@H](C)O)C(=O)N[C@@H](CCCN=C(N)N)C(N)=O [WRTRWRTRWRTR]	MIC [14]: ≥ 32 µM; MIC [15]: 2 µM (≈ 3.63 µg/mL)
